Assay results taken from patent publication US9763445B2, “Safened herbicidal compositions comprising a pyridine carboxylic acid herbicide” (Dow AgroSciences, LLC, priority 2014, dated 2017).

Columns and labels:
common sorghum (SORVU) = test: Postemergence greenhouse trial, % visual injury on common sorghum; assay type: in vivo, Sorghum vulgare; details: for % visual injury, observed (Ob): SORVU
Method: (§1) Seeds of the desired test plant species were planted in Sun Gro MetroMix® 306 planting mixture, which typically has a pH of 6.0 to 6.8 and an organic matter content of about 30 percent, in plastic pots with a surface area of 103.2 square centimeters (cm^2). When required to ensure good germination and healthy plants, a fungicide treatment and/or other chemical or physical treatment was applied. The plants were grown for 7-36 days (d) in a greenhouse with an approximate 14-hour (h) photoperiod which was maintained at about 23° C. during the day and 22° C. during the night. Nutrients and water were added on a regular basis and supplemental lighting was provided with overhead metal halide 1000-Watt lamps as necessary. The plants were employed for testing when they reached the second or third true leaf stage.
(§2) Weighed amounts of technical material were dissolved in a volume of 97:3 volume per volume (v/v) acetone/dimethyl sulfoxide (DMSO) to stock solutions. […] The concentrated stock solutions were diluted with an aqueous mixture of 1.5% v/v of Agri-dex crop oil concentrate to provide the appropriate application rates. Compound requirements are based upon a 12 milliliter (mL) application volume at a rate of 187 liters per hectare (L/ha). Stocks solutions of the safeners were prepared following the same procedure. Spray solutions of the safeners and experimental compound mixtures were prepared by adding the stock solutions to the appropriate amount of dilution solution to form a 12 mL spray solution in two-way combinations. Formulated compounds were applied to the plant material with an overhead Mandel track sprayer equipped with 8002E nozzles calibrated to deliver 187 L/ha over an application area of 0.503 square meters (m^2) at a spray height of 18 inches (43 centimeters (cm)) above average plant canopy. Control plants were sprayed in the same manner with the solvent blank. All herbicide application (component a) rates are in g ae/ha and all safener (component b) rates are in g ai/ha.
(§3) The treated plants and control plants were placed in a greenhouse as described above and watered by sub-irrigation to prevent wash-off of the test compounds. After 20-22 d, the condition of the test plants as compared with that of the control plants was determined visually and scored on a scale of 0 to 100 percent where 0 corresponds to no injury and 100 corresponds to complete kill. The condition of the test plants was compared with that of the control plants as determined visually and scored on a scale of 0 to 100 percent, where 0 corresponds to no injury and 100 corresponds to complete kill. Colby's equation was used to determine the herbicidal effects expected from the mixtures. […]
(§4) The safener cloquintocet-acid and a number of agriculturally acceptable esters and salts (-mexyl, -dimethylammonium salt and -triethylammonium salt) were combined in varying ratios with compound 1 and applied to spring wheat (TRZAS), winter wheat (TRZAW), and spring barley (HORVS), and the phytotoxicity of the herbicidal compositions was measured. In addition, the efficacy of the herbicidal composition on pigweed (AMARE, Amaranthus retroflexus), nutsedge (CYPES, Cyperus esculentus), common sunflower (HELAN, Helianthus annuus), and common sorghum (SORVU, Sorghum vulgare).

common sunflower (HELAN) = test: Postemergence greenhouse trial, % visual injury on common sunflower; assay type: in vivo, Helianthus annuus
Method: as §1, §2
(§5) The treated plants and control plants were placed in a greenhouse as described above and watered by sub-irrigation to prevent wash-off of the test compounds. After 20-22 d, the condition of the test plants as compared with that of the control plants was determined visually and scored on a scale of 0 to 100 percent where 0 corresponds to no injury and 100 corresponds to complete kill. The condition of the test plants was compared with that of the control plants as determined visually and scored on a scale of 0 to 100 percent, where 0 corresponds to no injury and 100 corresponds to complete kill. Colby's equation was used to determine the herbicidal effects expected from the mixtures.
as §4

corn/maize (ZEAMX) = test: Postemergence greenhouse trial, % visual injury on corn/maize; assay type: in vivo, Zea mays; details: for % visual injury, observed (Ob): ZEAMX; for % visual injury, Ob: alone, 35 g/ha
Method: as §1, §2, §5
(§6) The safener cloquintocet-mexyl was combined with compound 1, compound 2, compound 4, compound 5, and compound 6, and applied to corn/maize (ZEAMX) and spring wheat (TRZAS) and the phytotoxicity of the herbicidal compositions was measured. In addition, the efficacy of the herbicidal composition on velvetleaf (ABUTH, Abutilon theophrasti), pigweed (AMARE, Amaranthus retroflexus), winter rape (BRSNW, Brassica napus), lambsquarters (CHEAL, Chenopodium album), thistle (CIRAR, Cirsium arvense), nutsedge (CYPES, Cyperus esculentus), poinsettia (EPHHL, Euphorbia heterophylla), wild buckwheat (POLCO, Polygonum convolvulus), giant foxtail (SETFA, Setaria faberi), and chickweed (STEME, Stellaria media) was evaluated. […]

winter wheat (TRZAW) = test: Postemergence greenhouse trial, % visual injury on winter wheat; assay type: in vivo, Triticum aestivum; details: TRZAW
Method: as §1, §2, §5
(§7) The safener cloquintocet-mexyl was combined with compound 1, compound 2, compound 3, compound 7, compound 8, compound 9, compound 10, compound 11, compound 12, compound 13, compound 14, compound 15, compound 16, compound 17, compound 18, compound 19, and compound 20, and applied to spring wheat (TRZAS), winter wheat (TRZAW), and spring barley (HORVS) and the phytotoxicity of the herbicidal compositions was measured. […]

pigweed (AMARE) = test: Postemergence greenhouse trial, % visual injury on pigweed; assay type: in vivo, Amaranthus retroflexus; details: for % visual injury, observed (Ob): AMARE; for pest or weed control at 35 g/ha: Amaranthus retroflexus, post-emergence, alone, read-out: % visual injury, Ob
Method: as §1, §2, §5, §6
(§8) The safener cloquintocet-acid and a number of agriculturally acceptable esters and salts (-mexyl, -dimethylammonium salt and -triethylammonium salt) were combined in varying ratios with compound 1 and applied to spring wheat (TRZAS), winter wheat (TRZAW), and spring barley (HORVS), and the phytotoxicity of the herbicidal compositions was measured. […]

nutsedge (CYPES) = test: Postemergence greenhouse trial, % visual injury on nutsedge; assay type: in vivo, Cyperus esculentus; details: for % visual injury, observed (Ob): CYPES
Method: as §1, §2, §5, §6, §8

wild buckwheat (POLCO) = test: Postemergence greenhouse trial, % visual injury on wild buckwheat; assay type: in vivo, Polygonum convolvulus; details: alone, 35 g/ha
Method: as §1, §2, §5
(§9) The safener cloquintocet-mexyl was combined with compound 1, compound 2, compound 4, compound 5, and compound 6, and applied to corn/maize (ZEAMX) and spring wheat (TRZAS) and the phytotoxicity of the herbicidal compositions was measured. In addition, the efficacy of the herbicidal composition on velvetleaf (ABUTH, Abutilon theophrasti), pigweed (AMARE, Amaranthus retroflexus), winter rape (BRSNW, Brassica napus), lambsquarters (CHEAL, Chenopodium album), thistle (CIRAR, Cirsium arvense), nutsedge (CYPES, Cyperus esculentus), poinsettia (EPHHL, Euphorbia heterophylla), wild buckwheat (POLCO, Polygonum convolvulus), giant foxtail (SETFA, Setaria faberi), and chickweed (STEME, Stellaria media) was evaluated.
as §7

lambsquarters (CHEAL) = test: Postemergence greenhouse trial, % visual injury on lambsquarters; assay type: in vivo, Chenopodium album; details: Chenopodium album, post-emergence; alone, 35 g/ha; read-out: % visual injury, Ob
Method: as §1, §2, §5, §9, §7

winter rape (BRSNW) = test: Postemergence greenhouse trial, % visual injury on winter rape; assay type: in vivo, Brassica napus; details: Brassica napus, post-emergence; alone, 35 g/ha; read-out: % visual injury, Ob
Method: as §1, §2, §5, §6

thistle (CIRAR) = test: Postemergence greenhouse trial, % visual injury on thistle; assay type: in vivo, Cirsium arvense; details: Cirsium arvense, post-emergence; alone, 35 g/ha; read-out: % visual injury, Ob
Method: as §1, §2, §5, §6

velvetleaf (ABUTH) = test: Postemergence greenhouse trial, % visual injury on velvetleaf; assay type: in vivo, Abutilon theophrasti; details: alone, 35 g/ha
Method: as §1, §2, §5, §9, §7

spring wheat (TRZAS) = test: Postemergence greenhouse trial, % visual injury on spring wheat; assay type: in vivo, Triticum aestivum; details: alone, 35 g/ha
Method: as §1, §2, §5, §9, §7

chickweed (STEME) = test: Postemergence greenhouse trial, % visual injury on chickweed; assay type: in vivo, Stellaria media; details: alone, 35 g/ha
Method: as §1, §2, §5, §6

giant foxtail (SETFA) = test: Postemergence greenhouse trial, % visual injury on giant foxtail; assay type: in vivo, Setaria faberi; details: alone, 35 g/ha
Method: as §1
Weighed amounts of technical material were dissolved in a volume of 97:3 volume per volume (v/v) acetone/dimethyl sulfoxide (DMSO) to stock solutions. […] The concentrated stock solutions were diluted with an aqueous mixture of 1.5% v/v of Agri-dex crop oil concentrate to provide the appropriate application rates. Compound requirements are based upon a 12 milliliter (mL) application volume at a rate of 187 liters per hectare (L/ha). […]
as §3, with “kill.” for “kill. Colby's equation was used to determine the herbicidal effects expected from the mixtures.”
The safener cloquintocet-mexyl was combined with compound 1, compound 2, compound 4, compound 5, and compound 6, and applied to corn/maize (ZEAMX) and spring wheat (TRZAS) and the phytotoxicity of the herbicidal compositions was measured. […]

wild pansy (VIOTR) = test: Postemergence greenhouse trial, % visual injury on wild pansy; assay type: in vivo, Viola tricolor; details: alone, 35 g/ha
Method: as §1, §2, §3

Compound: CCN(CC)CC.O=C(O)COc1ccc(Cl)c2cccnc12 [CQC-TEA]
- % visual injury, observed (Ob) (common sorghum (SORVU); safener alone 2.5 g/ha): 0%
- % visual injury, observed (Ob) (common sorghum (SORVU); safener alone 5 g/ha): 0%
- % visual injury, observed (Ob) (common sorghum (SORVU); safener alone 10 g/ha): 0%
- % visual injury, observed (Ob) (common sorghum (SORVU); safener alone 20 g/ha): 0%
- % visual injury, observed (Ob) (common sunflower (HELAN); safener alone 2.5 g/ha): 0%
- % visual injury, observed (Ob) (common sunflower (HELAN); safener alone 5 g/ha): 0%
- % visual injury, observed (Ob) (common sunflower (HELAN); safener alone 10 g/ha): 0%
- % visual injury, observed (Ob) (common sunflower (HELAN); safener alone 20 g/ha): 0%
- % visual injury, observed (Ob) (corn/maize (ZEAMX); safener alone 2.5 g/ha): 0%
- % visual injury, observed (Ob) (corn/maize (ZEAMX); safener alone 5 g/ha): 0%
- % visual injury, observed (Ob) (corn/maize (ZEAMX); safener alone 10 g/ha): 0%
- % visual injury, observed (Ob) (corn/maize (ZEAMX); safener alone 20 g/ha): 0%
- % visual injury, observed (Ob) (winter wheat (TRZAW); safener alone 2.5 g/ha): 0%
- % visual injury, observed (Ob) (winter wheat (TRZAW); safener alone 5 g/ha): 0%
- % visual injury, observed (Ob) (winter wheat (TRZAW); safener alone 10 g/ha): 0%
- % visual injury, observed (Ob) (winter wheat (TRZAW); safener alone 20 g/ha): 0%
- % visual injury, observed (Ob) (pigweed (AMARE); safener alone 2.5 g/ha): 0%
- % visual injury, observed (Ob) (pigweed (AMARE); safener alone 5 g/ha): 0%
- % visual injury, observed (Ob) (pigweed (AMARE); safener alone 10 g/ha): 0%
- % visual injury, observed (Ob) (pigweed (AMARE); safener alone 20 g/ha): 0%
- % visual injury, observed (Ob) (nutsedge (CYPES); safener alone 2.5 g/ha): 0%
- % visual injury, observed (Ob) (nutsedge (CYPES); safener alone 5 g/ha): 0%
- % visual injury, observed (Ob) (nutsedge (CYPES); safener alone 10 g/ha): 0%
- % visual injury, observed (Ob) (nutsedge (CYPES); safener alone 20 g/ha): 0%

Compound: COC(=O)c1nc(-c2ccc3ccn(C(=O)C(C)C)c3c2F)c(F)c(N)c1Cl [compound 4]
- % visual injury, Ob (wild buckwheat (POLCO)): 100%
- pest or weed control at 35 g/ha (lambsquarters (CHEAL)): 97%
- plant injury at 35 g/ha (winter rape (BRSNW)): 97%
- % visual injury, Ob (corn/maize (ZEAMX)): 35%
- pest or weed control at 35 g/ha (thistle (CIRAR)): 75%
- % visual injury, Ob (velvetleaf (ABUTH)): 80%
- % visual injury, Ob (spring wheat (TRZAS)): 40%
- % visual injury, Ob (chickweed (STEME)): 93%
- pest or weed control at 35 g/ha (pigweed (AMARE)): 100%

Compound: COC(=O)c1nc(-c2ccc3ccn(C(C)=O)c3c2F)c(F)c(N)c1Cl [compound 3]
- % visual injury, Ob (common sorghum (SORVU); alone, 35 g/ha): 10%
- % visual injury, Ob (wild buckwheat (POLCO)): 97%
- pest or weed control at 35 g/ha (lambsquarters (CHEAL)): 85%
- plant injury at 35 g/ha (winter rape (BRSNW)): 30%
- % visual injury, Ob (corn/maize (ZEAMX)): 0%
- pest or weed control at 35 g/ha (thistle (CIRAR)): 50%
- % visual injury, Ob (velvetleaf (ABUTH)): 50%
- % visual injury, Ob (spring wheat (TRZAS)): 30%
- % visual injury, Ob (giant foxtail (SETFA)): 60%
- % visual injury, Ob (wild pansy (VIOTR)): 10%
- % visual injury, Ob (chickweed (STEME)): 70%
- pest or weed control at 35 g/ha (pigweed (AMARE)): 95%
- % visual injury, Ob (nutsedge (CYPES); alone, 35 g/ha): 10%
